# Target: T1, 3-hydroxy-3-methyl-glutaryl CoA reductase (Rattus norvegicus, UniProt P51639)
# T1 construct: from tissue; host or cells: enzyme system separated from an experimental animal
# T1 sequence (P51639 1-887): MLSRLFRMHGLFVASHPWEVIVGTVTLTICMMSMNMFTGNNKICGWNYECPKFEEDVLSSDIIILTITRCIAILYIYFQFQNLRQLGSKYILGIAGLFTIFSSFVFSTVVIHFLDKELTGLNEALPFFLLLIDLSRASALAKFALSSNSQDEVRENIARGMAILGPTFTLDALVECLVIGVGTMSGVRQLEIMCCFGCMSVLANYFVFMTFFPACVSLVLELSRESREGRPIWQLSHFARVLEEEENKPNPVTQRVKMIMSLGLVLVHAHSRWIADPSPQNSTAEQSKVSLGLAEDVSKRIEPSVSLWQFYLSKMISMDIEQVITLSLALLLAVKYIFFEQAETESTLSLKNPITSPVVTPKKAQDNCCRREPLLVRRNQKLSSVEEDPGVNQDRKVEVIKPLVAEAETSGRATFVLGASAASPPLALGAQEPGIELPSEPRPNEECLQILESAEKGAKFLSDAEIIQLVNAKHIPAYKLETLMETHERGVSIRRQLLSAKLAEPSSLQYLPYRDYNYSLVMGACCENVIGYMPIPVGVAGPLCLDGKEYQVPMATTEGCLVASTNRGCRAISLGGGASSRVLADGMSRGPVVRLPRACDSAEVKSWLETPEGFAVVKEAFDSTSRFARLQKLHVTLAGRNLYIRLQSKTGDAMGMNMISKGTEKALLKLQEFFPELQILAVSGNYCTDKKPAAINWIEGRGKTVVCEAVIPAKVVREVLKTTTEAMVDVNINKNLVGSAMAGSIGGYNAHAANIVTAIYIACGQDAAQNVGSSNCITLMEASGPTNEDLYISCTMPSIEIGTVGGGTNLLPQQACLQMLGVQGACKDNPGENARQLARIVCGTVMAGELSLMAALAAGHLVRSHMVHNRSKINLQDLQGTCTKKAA
# Test: inhibition of 3-hydroxy-3-methyl-glutaryl CoA reductase (method of Kuroda et al.)
# Assay type: biochemical
# Conditions: read-out: IC50 (concentration to achieve 50% inhibition of 3-hydroxy-3-methyl-glutaryl CoA reductase)
# Text: The compounds of the present invention have a marked ability to reduce the levels of serum cholesterol. Specifically, the biosynthesis of chlolesterol in an enzyme system or a culture cell system separated from an experimental animal is inhibited through competition with the rate limiting enzyme of 3-hydroxy-3-methylglutaryl-CoA reductase. […] The determination of the inhibitory activity of the compounds was made using the method of Kuroda et al ["Biochimica et Biophysica Acta" Vol. 486, pp. 70-81(1977)] which is a modification of the known method of D. J. Shapiro et al ["Analytical Biochemistry" Vol. 31, pp. 383-390(1969)] with some improvements.
# The results are shown in Table 2, in which IC50 is the concentration to achieve 50% inhibition of 3-hydroxy-3-methyl-glutaryl CoA reductase (nM).
row,SMILES,IC50
1,"CCC(C)C(=O)OC1CCC(=NOC)C2=CC(=O)C(C)C(CCC(O)CC(O)CC(=O)O)C21 (stereo not shown) [Compound B, Sodium 1-(2-methylbutyryl)-3,4-dihydro-6-oxo-4-methoxyiminoiso-ML-236A carboxylate, reference compound]",39.5 nM
2,"CCC(C)C(=O)OC1CCC(=NOCc2ccc(F)cc2)C2=CC(=O)C(C)C(CCC(O)CC(O)CC(=O)O)C21 (stereo not shown) [Example 3b, Sodium 1-(2-methylbutyryl)-3,4-dihydro-6-oxo-4-(4-fluorobenzyl)oxyiminoiso-ML-236A Carboxylate]",26.5 nM
3,"CCC(C)C(=O)OC1CCC(=NOCc2ccccc2CO)C2=CC(=O)C(C)C(CCC(O)CC(O)CC(=O)O)C21 (stereo not shown) [Example 6b, Sodium 1-(2-methylbutyryl)-3,4-dihydro-6-oxo-4-(2-hydroxymethylbenzyl)oxyiminoiso-ML-236A Carboxylate]",18.4 nM
4,"CCC(C)C(=O)OC1CCC(=NOCc2ccco2)C2=CC(=O)C(C)C(CCC(O)CC(O)CC(=O)O)C21 (stereo not shown) [Example 11b, Sodium 1-(2-methylbutyryl)-3,4-dihydro-6-oxo-4-furfuryl-oxyiminoiso-ML-236ACarboxylate]",36 nM
5,"CCC(C)C(=O)OC1CCC(=NOCC=C(C)C)C2=CC(=O)C(C)C(CCC(O)CC(O)CC(=O)O)C21 (stereo not shown) [Example 17b, Sodium 1-(2-methylbutyryl)-3,4-dihydro-6-oxo-4-(3-methyl-2-butenyl)oxyiminoiso-ML-236A Carboxylate]",21.3 nM

# Other lines, results leading:
row,IC50,SMILES
1,35.7 nM,"CCC(C)C(=O)OC1CCC(=NO)C2=CC(=O)C(C)C(CCC(O)CC(O)CC(=O)O)C21 (stereo not shown) [Compound A, Sodium 1-(2-methylbutyryl)-3,4-dihydro-6-oxo-4-hydroxyiminoiso-ML-236A carboxylate, reference compound]"
2,33.1 nM,"CCC(C)C(=O)OC1CCC(=NOCc2ccccc2)C2=CC(=O)C(C)C(CCC(O)CC(O)CC(=O)OCc3ccccc3)C21 (stereo not shown) [Example 1(c), Benzyl-(2-methylbutyryl)-3,4-dihydro-6-oxo-4-benzyl-oxyiminoiso-ML-236A carboxylate]"
3,21 nM,"CCC(C)C(=O)OC1CCC(=NOCc2ccc([N+](=O)[O-])cc2)C2=CC(=O)C(C)C(CCC(O)CC(O)CC(=O)O)C21 (stereo not shown) [Example 4b, Sodium 1-(2-methylbutyryl)-3,4-dihydro-6-oxo-4-(4-nitrobenzyl)oxyiminoiso-ML-236ACarboxylate]"
4,31.4 nM,"CCC(C)C(=O)OC1CCC(=NOCc2cccnc2)C2=CC(=O)C(C)C(CCC(O)CC(O)CC(=O)O)C21 (stereo not shown) [Example 10b, Sodium 1-(2-methylbutyryl)-3,4-dihydro-6-oxo-4-(3-pyridylmethyl)oxyiminoiso-ML-236A Carboxylate]"

# Test system: serum cholesterol
# Test: not given
# Conditions: animals; J. Antibiotics 29, 1346 (1976); cited from earlier work
row,SMILES,reduction of serum cholesterol levels
1,CC1C=CC2=CCCC(O)C2C1CCC1CC(O)CC(=O)O1 (stereo not shown) [ML-236A],significantly reduce
2,CCC(C)C(=O)OC1CCC=C2C=CC(C)C(CCC3CC(O)CC(=O)O3)C21 (stereo not shown) [ML-236B],significantly reduce

# Test system: 3-hydroxy-3-methylglutaryl-coenzyme A reductase
# Test: not given
# Conditions: enzymes or cultured cells from experimental animals; competing with HMG-CoA reductase; cited from earlier work
row,SMILES,inhibition of the biosynthesis of cholesterol
1,CC1C=CC2=CCCC(O)C2C1CCC1CC(O)CC(=O)O1 (stereo not shown) [ML-236A],inhibit the biosynthesis of cholesterol
2,CCC(C)C(=O)OC1CCC=C2C=CC(C)C(CCC3CC(O)CC(=O)O3)C21 (stereo not shown) [ML-236B],inhibit the biosynthesis of cholesterol
